According to patent US12415770B2, “Modulators of liver receptor homologue 1 (LRH-1) and uses” (Emory University, priority 2017, dated 2025):
“Also recorded” adds a separate entry of the source.

Legend:
[1] = target: T1, LRH-1 (Homo sapiens, UniProt O00482); experiment: Luciferase reporter assay (SHP-luc) in HeLa cells transfected with full-length LRH-1; assay type: cell-based; conditions: for Relative Efficacy: fold increase over baseline (DMSO-treated cells) relative to the fold increase induced by RJW100
T1 construct: The transfected plasmids included full-length LRH-1 in a pCI vector; expressed in transfected cells; host or cells: HeLa
T1 sequence (O00482 whole entry): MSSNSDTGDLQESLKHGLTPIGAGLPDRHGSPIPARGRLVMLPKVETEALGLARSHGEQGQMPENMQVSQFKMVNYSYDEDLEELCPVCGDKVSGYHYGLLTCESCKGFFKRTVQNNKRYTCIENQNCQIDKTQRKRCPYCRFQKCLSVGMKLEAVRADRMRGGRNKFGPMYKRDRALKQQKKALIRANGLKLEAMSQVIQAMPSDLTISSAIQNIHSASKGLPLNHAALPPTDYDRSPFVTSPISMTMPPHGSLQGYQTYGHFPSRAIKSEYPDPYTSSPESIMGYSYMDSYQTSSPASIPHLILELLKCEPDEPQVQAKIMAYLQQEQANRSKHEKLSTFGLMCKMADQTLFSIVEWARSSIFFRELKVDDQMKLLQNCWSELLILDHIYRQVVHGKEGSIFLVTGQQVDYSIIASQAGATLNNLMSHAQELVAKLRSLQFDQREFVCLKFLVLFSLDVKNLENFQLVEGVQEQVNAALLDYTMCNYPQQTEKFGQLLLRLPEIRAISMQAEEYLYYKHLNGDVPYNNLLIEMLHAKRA
Experimental: EC50 and Relative Activity values were calculated from luciferase reporter assays.

[2] = target: H390A-LRH-1 (Homo sapiens, UniProt O00482, H390A); experiment: Luciferase reporter assay (SHP-luc), H390A mutant LRH-1; conditions: His-390 mutated to alanine
Sequence of H390A-LRH-1 (O00482 whole entry H390A, the tested form may be a part): as the sequence (O00482 whole entry) above, with H390A counted along it

[3] = target: T2, LRH-1 LBD (Homo sapiens, UniProt O00482); experiment: Thermofluor (DSF) assay, purified LRH-1 LBD-His protein; assay type: binding; conditions: for ΔTm at 50 µM: read-out: ΔTm (mean +/− SEM) (° C.)
T2 construct: LRH-1 LBD (residues 299-541) in the pMSC7 vector was expressed in BL21 (DE3) pLysS E. coli; made in house; host or cells: E. coli BL21 (DE3) pLysS
T2 sequence (O00482 299-541): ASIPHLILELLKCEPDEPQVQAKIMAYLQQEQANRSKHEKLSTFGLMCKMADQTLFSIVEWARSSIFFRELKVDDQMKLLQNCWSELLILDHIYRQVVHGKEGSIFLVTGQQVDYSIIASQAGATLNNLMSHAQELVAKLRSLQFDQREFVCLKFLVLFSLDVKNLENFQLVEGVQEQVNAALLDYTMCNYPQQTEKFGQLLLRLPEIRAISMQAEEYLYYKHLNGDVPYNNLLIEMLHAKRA
Experimental: Thermofluor assays—Purified LRH-1 LBD-His protein (0.2 mg/ml) was incubated overnight with 50 μM of each compound at 4° C. The final DMSO concentration in the reactions was 1%. SYPRO orange dye (Invitrogen) was then added at a 1:1000 dilution. Reactions were heated at a rate of 0.5° C. per minute, using a StepOne Plus Real Time PCR System (ThermoFisher). […] Data were analyzed by first subtracting baseline fluorescence (ligands+SYPRO with no protein) and then fitting the curves using the Bolzman equation (GraphPad Prism, v6) to determine the Tm. […]

[4] = cited from earlier work
[5] = diabetic mice fed DLPC, mouse models of insulin resistance
[6] = HeLa cells, SHP-luc reporter, 24 hours, 0.03-30 μM
[7] = 50 μM compound, relative to DLPC-bound LRH-1

| EC50 [1, 6] [µM] | Relative Efficacy [1] | ΔTm at 50 µM [3, 7] [°C] | EC50 (μM) [1, 6] | SMILES | other results |
| --- | --- | --- | --- | --- | --- |
| – | – | – | – | CCC/C=C(\CCC)C1=C(c2ccccc2)[C@]2(Nc3ccccc3)CCC[C@@H]2C1 [GSK8470, reference compound] | increase of LRH-1 activity compared with DMSO ([1]; WT LRH-1, highest dose): ~2.5 fold; EC50 ([1]; WT LRH-1, text): ~4 µM; activation of H390A-LRH-1 [2]: completely unable to activate; stabilization of LRH-1-ligand complex / Tm shift ([3]; WT LRH-1): did not affect the melting profile |
| – | – | – | – | CCCCCCCCCCCC(=O)OC[C@H](COP(=O)([O-])OCC[N+](C)(C)C)OC(=O)CCCCCCCCCCC [DLPC, dilauroyl-phosphatidylcholine] | bile acid levels ([4]; DLPC treatment, mouse): increases bile acid levels; hepatic triglycerides and serum glucose ([4]; DLPC treatment, mouse): lowers hepatic triglycerides and serum glucose; circulating insulin, triglycerides, and free fatty acids ([4]; diabetic mice fed DLPC): reduced quantities; glucose tolerance / glucose homeostasis [4, 5]: improves glucose homeostasis; also recorded: improved glucose tolerance; hepatic fat accumulation / hepatic steatosis [4, 5]: decreases hepatic steatosis; also recorded: reduced hepatic fat accumulation |
| 5.1 | 0.93 | -1.7 | – | C=C(c1ccccc1)C12CCC(O)C1CC(CCCCCCCCCCCOP(=O)([O-])OCC[N+](C)(C)C)=C2c1ccccc1 (stereo not drawn) [Compound 12g, 11-(6-exo-hydroxy-3-phenyl-3a-(1-phenylvinyl)-1,3a,4,5,6,6a-hexahydropentalen-2-yl)undecyl (2-(trimethylammonio)ethyl) phosphate] | – |
| 0.7 | 1.52 | 4 | – | C=C(c1ccccc1)[C@@]12CC[C@@H](O)[C@@H]1CC(CCCCCCCCO)=C2c1ccccc1 (relative stereo) [Compound 9e, Exo-5-(8-hydroxyoctyl)-4-phenyl-3a-(1-phenylvinyl)-1,2,3,3a,6,6a-hexahydropentalen-1-ol] | – |
| 0.7 | 3.70 | 1.5 | – | C=C(c1ccccc1)[C@@]12CC[C@@H](O)C1CC(CCCCCCCCOC(C)=O)=C2c1ccccc1 (stereo partly drawn) [Compound 47-exo, (Exo or Endo) 8-(6-hydroxy-3-phenyl-3a-(1-phenylvinyl)-1,3a,4,5,6,6a-hexahydropentalen-2-yl)octyl acetate] | – |
| – | 0.06 | 0.1 | – | CCCCCCC1=C(c2ccccc2)[C@]2(C(C)c3ccccc3)CC[C@@H](O)C2C1 (stereo partly drawn) [Compound 39-exo, (Endo or Exo)-5-hexyl-4-phenyl-3a-(1-phenylethyl)-1,2,3,3a,6,6a-hexahydropentalen-1-ol] | – |
| – | 0.60 | 1.3 | cnc | C=C(c1ccccc1)C12CCC(O)C1CC(CCCCC(=O)O)=C2c1ccccc1 (stereo not drawn) [Compound 6f, 5-(6-exo-hydroxy-3-phenyl-3a-(1-phenylvinyl)-1,3a,4,5,6,6a-hexahydropentalen-2-yl)pentanoic acid] | – |
| – | 0.00 | < 1 | cnc | C=C(c1ccccc1)C12CCC(O)C1CC(CCCCCOP(=O)([O-])OCC[N+](C)(C)C)=C2c1ccccc1 (stereo not drawn) [Compound 6g, 5-(6-exo-hydroxy-3-phenyl-3a-(1-phenylvinyl)-1,3a,4,5,6,6a-hexahydropentalen-2-yl)pentyl (2-(trimethylammonio)ethyl) phosphate] | – |
| – | 0.56 | – | – | C=C(c1ccccc1)C12CCC(N)C1CC(CCCCCC)=C2c1ccccc1 (stereo not drawn) [Compound 33-endo, (Endo or Exo)-5-hexyl-4-phenyl-3a-(1-phenylvinyl)-1,2,3,3a, 6,6a-hexahydropentalen-1-amine] | ΔTm (mean +/− SEM) (° C.) [3, 7]: ns (Ns = Tm changes were less than 1° C.) |
| 1.8 | 3.39 | 3 | – | C=C(c1ccccc1)[C@@]12CC[C@@H](O)[C@@H]1CC(CCCCCCCCC(=O)O)=C2c1ccccc1 (relative stereo) [Compound 10f, 9-(6-exo-hydroxy-3-phenyl-3a-(1-phenylvinyl)-1,3a,4,5,6,6a-hexahydropentalen-2-yl)nonanoic acid] | – |
| – | 0.56 | -3 | – | C=C(c1ccccc1)[C@@]12CC[C@@H](N)C1CC(CCCCCC)=C2c1ccccc1 (stereo partly drawn) [Compound 33-exo, (Endo or Exo)-5-hexyl-4-phenyl-3a-(1-phenylvinyl)-1,2,3,3a, 6,6a-hexahydropentalen-1-amine] | – |
| – | 0.81 | 2.9 | cnc | C=C(c1ccccc1)C12CCC(O)C1CC(CCCCCCCOP(=O)([O-])OCC[N+](C)(C)C)=C2c1ccccc1 (stereo not drawn) [Compound 8g, 7-(6-exo-hydroxy-3-phenyl-3a-(1-phenylvinyl)-1,3a,4,5,6,6a-hexahydropentalen-2-yl)heptyl (2-(trimethylammonio)ethyl) phosphate] | – |
| > 30 | 1.12 | 5.6 | – | C=C(c1ccccc1)C12CCC(O)C1CC(CCCCCCCCOP(=O)([O-])OCC[N+](C)(C)C)=C2c1ccccc1 (stereo not drawn) [Compound 9g, 8-(6-exo-hydroxy-3-phenyl-3a-(1-phenylvinyl)-1,3a,4,5,6,6a-hexahydropentalen-2-yl)octyl (2-(trimethylammonio)ethyl) phosphate] | – |
| – | 0.33 | < 1 | cnc | C=C(c1ccccc1)C12CCC(O)C1CC(CCCCOP(=O)([O-])OCC[N+](C)(C)C)=C2c1ccccc1 (stereo not drawn) [Compound 5g, 4-(6-exo-hydroxy-3-phenyl-3a-(1-phenylvinyl)-1,3a,4,5,6,6a-hexahydropentalen-2-yl)butyl (2-(trimethylammonio)ethyl) phosphate] | – |
| – | 0.42 | < 1 | cnc | C=C(c1ccccc1OC)[C@@]12CC[C@@H](O)C1CC(CCCCCC)=C2c1ccccc1 (mixture of isomers) [Compound 22, (Exo)-5-hexyl-3a-(1-(2-methoxyphenyl)vinyl)-4-phenyl-1,2,3,3a,6,6a-hexahydropentalen-1-ol] | – |
| 5 | 0.70 | < 1 | – | C=C(c1ccccc1)[C@@]12CC[C@H](N=[N+]=[N-])C1CC(CCCCCC)=C2c1ccccc1 (stereo partly drawn) [Compound 31-endo, (Endo or Exo)-5-hexyl-4-phenyl-3a-(1-phenylvinyl)-1,2,3,3a,6,6a-hexahydropentalen-1-azide] | – |
| – | 0.99 | 1.5 | cnc | C=C(c1ccccc1)[C@@]12CC[C@@H](O)C1CC(CCCCCC)=C2c1cc(N)cc(F)c1 (mixture of isomers) [Compound 18g, (Exo)-4-(3-amino-5-fluorophenyl)-5-hexyl-3a-(1-phenylvinyl)-1,2,3,3a,6,6a-hexahydropentalen-1-ol] | – |
